“And” between values parts separate entries of the source, which are not always exact repeats. Equal values may be shown once. Numbers after ± are expanded uncertainties.
Key:
[1] = DTA; for Triple point temperature: Crystal 2
[2] = Molar enthalpy of transition or fusion; details: DSC

| SMILES | Normal melting temperature ([1]; Crystal) | Molar enthalpy of transition or fusion ([2]; Crystal) | Normal melting temperature ([1]; Crystal 1) | Triple point temperature [1] | Molar enthalpy of transition or fusion ([2]; Crystal 2) |
| --- | --- | --- | --- | --- | --- |
| OCCCCCCO [1,6-hexanediol] | 41.6 ± 0.6 °C | 6.31 ± 0.143 kcal/mol |  |  |  |
| OCCCCCCCO [1,7-heptanediol] | 17.4 ± 4 °C | 6.29 ± 0.215 kcal/mol |  |  |  |
| OCCCCCCCCO [1,8-octanediol] | 58.5 ± 0.6 °C | 8.68 ± 0.191 kcal/mol |  |  |  |
| OCCCCCCCCCO [1,9-nonanediol] | 45.6 ± 0.6 °C | 8.77 ± 0.191 kcal/mol |  |  |  |
| OCCCCCCCCCCCCCCCO [1,15-pentadecanediol] |  |  | 88.1 ± 0.7 °C | 349 ± 0.7 K | 15.6 kcal/mol and 9.15 kcal/mol |
| OCCCCCCCCCCCCCCCCO [1,16-dihydroxyhexadecane] |  |  | 93 ± 0.7 °C | 364.1 ± 0.7 K | 17.4 ± 0.359 kcal/mol |

Results, then the molecule that gave them:

| Normal melting temperature ([1]; Crystal) | Molar enthalpy of transition or fusion ([2]; Crystal) | Normal melting temperature ([1]; Crystal 1) | Triple point temperature [1] | Molar enthalpy of transition or fusion ([2]; Crystal 2) | SMILES |
| --- | --- | --- | --- | --- | --- |
| 72.7 ± 0.7 °C | 10.8 ± 0.239 kcal/mol |  |  |  | OCCCCCCCCCCO [1,10-decanediol] |
| 61.0 ± 0.6 °C | 11 ± 0.239 kcal/mol |  |  |  | OCCCCCCCCCCCO [1,11-undecanediol] |
| 79.8 ± 0.7 °C | 13 ± 0.263 kcal/mol |  |  |  | OCCCCCCCCCCCCO [1,12-dihydroxydodecane] |
|  |  | 77.2 ± 0.7 °C | 339.3 ± 0.7 K | 13.1 ± 0.287 kcal/mol | OCCCCCCCCCCCCCO [1,13-tridecanediol] |
| 86.1 ± 0.7 °C | 15.2 ± 0.311 kcal/mol |  |  |  | OCCCCCCCCCCCCCCO [1,14-tetradecanediol] |

— the NIST ThermoML archive (doi:10.1016/j.jct.2013.08.019)
